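Results reflect a 48-hour exposure of cells in 96-well plates to compound at five concentrations. At the GI50, growth is halved.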 The source made the active and inactive calls. Cut-off read from the data, not from the text of the source: active = GI50 up to about 1.1 µM and inactive = higher.
Legend:
Assay in all cases: inhibition of tumour cell growth, NCI panel, 48 h
[1] = test system: SK-MEL-5
[2] = test system: MDA-MB-231
[3] = test system: SNB-75
[4] = test system: CCRF-CEM
[5] = test system: UACC-257
[6] = test system: OVCAR-4
[7] = test system: OVCAR-8
[8] = test system: SNB-19
[9] = test system: NCI-H226
[10] = test system: SN12C
[11] = test system: U-251
[12] = test system: HCC 2998
[13] = test system: RXF 393
[14] = test system: PC-3
[15] = test system: HL-60
[16] = test system: T47D
[17] = test system: IGROV-1
[18] = test system: SW-620
[19] = test system: SK-MEL-2
[20] = test system: SF-268
[21] = test system: LOX IMVI
[22] = test system: MDA-N
[23] = test system: OVCAR-3
[24] = test system: HOP-62
[25] = test system: SF-539
[26] = test system: EKVX
[27] = test system: NCI-H23
[28] = test system: SR
[29] = test system: NCI-H522
[30] = test system: MDA-MB-435
[31] = test system: SK-MEL-28
[32] = test system: OVCAR-5
[33] = test system: Malme-3M
[34] = test system: CAKI-1
[35] = test system: NCI/ADR-RES
[36] = test system: DU-145
[37] = test system: COLO 205
[38] = test system: M14
[39] = test system: K562
[40] = test system: HCT-15
[41] = test system: SK-OV-3
[42] = test system: TK-10
[43] = test system: MOLT-4
[44] = test system: 786-0
[45] = test system: RPMI-8226
[46] = test system: ACHN
[47] = test system: HOP-92
[48] = test system: NCI-H460
[49] = test system: UO-31
[50] = test system: KM12
[51] = test system: MCF7
[52] = test system: HT-29
[53] = test system: SF-295
[54] = test system: Hs-578T
[55] = test system: A498
[56] = test system: HCT-116
[57] = test system: A549
[58] = test system: UACC-62
[59] = test system: BT-549

Measured: GI50

COC12c3ccccc3-c3ccccc3C1[C@H]1C(=O)OC(=O)[C@H]12 (stereo not given in full)
inactive: [1] > 10 µM | [2] > 10 µM | [3] > 10 µM | [4] > 10 µM | [5] > 10 µM | [6] > 10 µM | [7] > 10 µM | [8] > 10 µM | [9] > 10 µM | [10] > 10 µM | [11] > 10 µM | [12] > 10 µM | [13] > 10 µM | [14] > 10 µM | [15] > 10 µM | [16] > 10 µM | [17] > 10 µM | [18] > 10 µM | [19] > 10 µM | [20] > 10 µM | [21] > 10 µM | [22] > 10 µM | [23] > 10 µM | [24] > 10 µM | [25] > 10 µM | [26] > 10 µM | [27] > 10 µM | [28] > 10 µM | [29] > 10 µM | [30] > 10 µM | [31] > 10 µM | [32] > 10 µM | [33] > 10 µM | [34] > 10 µM | [35] > 10 µM | [36] > 10 µM | [37] > 10 µM | [38] > 10 µM | [39] > 10 µM | [41] > 10 µM | [42] > 10 µM | [43] > 10 µM | [44] > 10 µM | [45] > 10 µM | [46] > 10 µM | [47] > 10 µM | [48] > 10 µM | [49] > 10 µM | [50] > 10 µM | [51] > 10 µM | [52] > 10 µM | [53] > 10 µM | [54] > 10 µM | [55] > 10 µM
> 10 µM: [40]

CC(=O)OCC1OC(O[C@@H]2C[C@H]3C(C)(C)[C@H](OC(C)=O)CC[C@]3(C)[C@H]3CC[C@@H]4[C@]5(CC[C@@]4(C)[C@@]32C)O[C@@H]([C@H](O)C(C)(C)O)C[C@@H]5C)C(O)C(O)C1O (stereo not given in full)
inactive: [11] 6.05 µM | [13] 4.4 µM | [34] 3.23 µM

Cc1ncc([N+](=O)[O-])n1CCn1ccnc1[N+](=O)[O-]
> 100 µM: [40]
inactive: [56] > 100 µM | [1] 38.3 µM | [3] > 100 µM | [4] > 100 µM | [5] > 100 µM | [7] 34.8 µM | [9] > 100 µM | [10] 61.7 µM | [11] > 100 µM | [12] > 100 µM | [14] 80.9 µM | [15] > 100 µM | [57] 54.2 µM | [18] 74.6 µM | [19] 58.6 µM | [20] > 100 µM | [23] > 100 µM | [24] > 100 µM | [25] > 100 µM | [26] 35.2 µM | [27] > 100 µM | [28] > 100 µM | [29] > 100 µM | [31] > 100 µM | [32] > 100 µM | [33] 72.1 µM | [39] > 100 µM | [42] 15.7 µM | [43] > 100 µM | [44] > 100 µM | [45] > 100 µM | [46] > 100 µM | [48] > 100 µM | [50] > 100 µM | [51] > 100 µM | [52] > 100 µM | [53] > 100 µM | [54] > 100 µM | [55] 61.9 µM

CCCCCCCCNC(=S)N/C=C1\C(=O)Oc2ccccc2C1=O
inactive: [56] 15.6 µM | [1] 15.3 µM | [2] 15.9 µM | [3] 14.2 µM | [4] 11.1 µM | [5] 19.1 µM | [6] 13.2 µM | [7] 19.5 µM | [9] 23.8 µM | [10] 19.8 µM | [12] 11.4 µM | [13] 16 µM | [14] 14.4 µM | [16] 65.8 µM | [57] 17.2 µM | [19] 22.5 µM | [20] 10 µM | [21] 7.05 µM | [22] 18.1 µM | [23] 12.6 µM | [24] 13.5 µM | [25] 17.6 µM | [26] 28.2 µM | [27] 21.1 µM | [29] 7.19 µM | [31] 16.1 µM | [32] 12.6 µM | [35] 19 µM | [36] 19.2 µM | [37] 15 µM | [38] 19.3 µM | [39] 16.3 µM | [43] 12.4 µM | [46] 14.8 µM | [58] 6.85 µM | [48] 14.4 µM | [50] 13.6 µM | [53] 14.1 µM | [55] 16 µM
12.2 µM: [40]

CN(C)c1ccc(/C=C2\C[C@H]3[C@@H]4CC=C5C[C@@H](O)CC[C@]5(C)[C@H]4CC[C@]3(C)C2=O)cc1
34.5 µM: [40]
inactive: [56] 29.2 µM | [1] 50.7 µM | [2] 18 µM | [3] 23.2 µM | [5] 19.9 µM | [6] 18.1 µM | [59] 53.5 µM | [7] 4.88 µM | [8] 17.1 µM | [9] 20 µM | [10] 20.9 µM | [11] 12.9 µM | [13] 19.7 µM | [14] 13.4 µM | [15] > 100 µM | [16] 20.3 µM | [17] 18 µM | [57] 19.9 µM | [18] 30.2 µM | [19] 19.7 µM | [20] 13 µM | [21] 13.2 µM | [22] 32.4 µM | [23] 24.8 µM | [24] 13.2 µM | [25] 9.2 µM | [26] 23.6 µM | [27] 25.6 µM | [28] 29.1 µM | [31] 16.2 µM | [32] 17.9 µM | [33] 19.5 µM | [35] 19.1 µM | [36] 44 µM | [37] 23.7 µM | [38] 16.6 µM | [39] 32.8 µM | [41] 25.8 µM | [42] 20.3 µM | [43] 79.3 µM | [44] 16.3 µM | [45] 66.8 µM | [46] 16.2 µM | [58] 17.4 µM | [48] 15.8 µM | [49] 4.55 µM | [50] 38.5 µM | [51] 30.5 µM | [52] 16.3 µM | [53] 25.6 µM | [55] 20.9 µM

CC(=O)/C(=C/n1ccc(=O)[nH]c1=S)C(=O)Nc1ccccc1C
inactive: [56] > 100 µM | [1] > 100 µM | [2] > 100 µM | [3] > 100 µM | [5] > 100 µM | [6] > 100 µM | [59] > 100 µM | [7] > 100 µM | [8] > 100 µM | [9] > 100 µM | [10] > 100 µM | [11] > 100 µM | [12] > 100 µM | [13] > 100 µM | [15] 82.6 µM | [16] > 100 µM | [17] > 100 µM | [57] > 100 µM | [18] > 100 µM | [19] > 100 µM | [20] > 100 µM | [21] > 100 µM | [22] > 100 µM | [23] > 100 µM | [24] > 100 µM | [25] > 100 µM | [26] > 100 µM | [27] > 100 µM | [30] > 100 µM | [31] > 100 µM | [32] > 100 µM | [34] > 100 µM | [35] > 100 µM | [36] > 100 µM | [37] > 100 µM | [38] > 100 µM | [41] > 100 µM | [42] > 100 µM | [44] > 100 µM | [46] > 100 µM | [58] > 100 µM | [47] > 100 µM | [48] > 100 µM | [49] > 100 µM | [50] > 100 µM | [51] > 100 µM | [52] > 100 µM | [53] > 100 µM | [55] > 100 µM
> 100 µM: [40]
